This note sets out measurements from US8981111B2 (priority 2008, dated 2015).

The nature of this series: log P (HPLC/MS data of the preparation examples). The note with it: method [b]: LC-MS at pH 2.7, 0.1% formic acid in water / acetonitrile, linear gradient 10% to 95% acetonitrile.
As to `Cn1nc(C(F)(F)F)nc1C(=NOCc1cccc(NC(=O)Cc2ccccc2)n1)c1ccccc1` [Example 175], the log p was 4.24^[b].

Regarding `Cn1nc(C(F)(F)F)nc1C(=NOCc1cccc(NC(=O)CCc2ccccc2)n1)c1ccccc1` [Example 176], the log p is 4.49^[b]. The value for `CC(C)CC(=O)Nc1cccc(CON=C(c2ccccc2)c2nc(C(F)(F)F)nn2C)n1` [Example 177] was 4.24^[b].

Take `Cn1nc(C(F)(F)F)nc1C(=NOCc1cccc(NC(=O)C(C)(C)C)n1)c1ccccc1` [Example 178]: the log p is 4.31^[b].

`CCCCCOC(=O)Nc1cccc(CON=C(c2ccccc2)c2nc(C(F)(F)F)nn2C)n1` [Example 179]: the log p is 5.2^[b]. Consider `CC(C)COC(=O)Nc1cccc(CON=C(c2ccccc2)c2nc(C(F)(F)F)nn2C)n1` [Example 180], for which the log p is 4.78^[b]. Take `Cn1nc(C(F)(F)F)nc1C(=NOCc1cccc(N)n1)c1ccccc1` [Example 181]: the log p was 1.97^[b].

As to `CCCCCC(=O)Nc1cccc(CON=C(c2ccccc2)c2nc(C(F)(F)F)nn2C)n1` [Example 182], the log p is 4.67^[b]. The value for `Cn1nc(C(F)(F)F)nc1C(=NOCc1cccc(N2C(=O)c3ccccc3C2=O)n1)c1ccccc1` [Example 183] was 3.99^[b].

Take `Cn1nc(C(F)(F)F)nc1C(=NOCc1cccc(NC(=O)C2CCCC2)n1)c1ccccc1` [Example 184]: the log p is 4.41^[b].

On to `CC(=O)OCCCCOC(=O)Nc1cccc(CON=C(c2ccccc2)c2nc(C(F)(F)F)nn2C)n1` [Example 185], for which the log p is 4.11^[b]. Consider `Cc1cc(C(F)(F)F)nn1CC(=O)Nc1cccc(CON=C(c2ccccc2)c2nc(C(F)(F)F)nn2C)n1` [Example 186], for which the log p is 4.31^[b]. The value for `CCCCCOC(=O)Nc1cccc(CON=C(c2ccccc2)c2csc(C)n2)n1` [Example 187] was 4.51^[b]; that for `Cn1c(C(=NOCc2cccc(N3C(=O)c4ccccc4C3=O)n2)c2ccccc2)nnc1C(F)(F)F` [Example 192] was 3.31^[b]; that for `Cc1ncc(C(=NOCc2cccc(N3C(=O)c4ccccc4C3=O)n2)c2ccccc2)n1C` [Example 194] was 1.84^[b].

In the case of `CCCCCOC(=O)Nc1cccc(CON=C(c2ccccc2)c2csc(C)n2)n1` [Example 195], the log p was 4.92^[b]. The value for `CCCCCC(=O)Nc1cccc(CON=C(c2ccccc2)c2nnc(C(F)(F)F)n2C)n1` [Example 196] was 3.94^[b]; that for `CCCCCOC(=O)Nc1cccc(CON=C(c2ccccc2)c2nnc(C(F)(F)F)n2C)n1` [Example 197] was 4.49^[b]. The value for `Cn1c(C(=NOCc2cccc(NC(=O)C(C)(C)C)n2)c2ccccc2)nnc1C(F)(F)F` [Example 198] was 3.58^[b]; that for `Cn1c(C(=NOCc2cccc(NC(=O)Cc3ccccc3)n2)c2ccccc2)nnc1C(F)(F)F` [Example 200] was 3.6^[b]; that for `Cn1c(C(=NOCc2cccc(NC(=O)CCc3ccccc3)n2)c2ccccc2)nnc1C(F)(F)F` [Example 201] was 3.85^[b]. The value for `Cn1c(C(=NOCc2cccc(NC(=O)C3CCCC3)n2)c2ccccc2)nnc1C(F)(F)F` [Example 202] was 3.69^[b]; that for `CC(C)COC(=O)Nc1cccc(CON=C(c2ccccc2)c2nnc(C(F)(F)F)n2C)n1` [Example 203] was 4.06^[b]. Take `Cn1c(C(=NOCc2cccc(NC(=O)c3cccs3)n2)c2ccccc2)nnc1C(F)(F)F` [Example 204]: the log p is 3.48^[b]. Then `CCOc1ccc(C(=O)Nc2cccc(CON=C(c3ccccc3)c3nnc(C(F)(F)F)n3C)n2)cc1` [Example 205], with 3.94^[b].

Take `CSCCC(=O)Nc1cccc(CON=C(c2ccccc2)c2nnc(C(F)(F)F)n2C)n1` [Example 206]: the log p was 3.15^[b]. Then `CCCCC(=O)Nc1cccc(CON=C(c2ccccc2)c2nnc(C(F)(F)F)n2C)n1` [Example 207], with 3.58^[b].
